Results as given in the NIST ThermoML archive (doi:10.1016/j.fluid.2010.02.020).
Several values for one entry are separate records, joined by “and”; a condition that tells them apart may be missing. Identical values can stand only once.

Conditions: for mass density: 101.33 kPa, Liquid, Vibrating tube method; for surface tension liquid-gas: Pendant drop shape

CCCC[n+]1ccn(C)c1.O=S(=O)([N-]S(=O)(=O)C(F)(F)F)C(F)(F)F
Conditions	mass density [kg/m3]	surface tension liquid-gas
293.15 K	1442.3	–
303.15 K	1432.8	–
312.6 K	–	31.9 mN/m
313.15 K	1423.4	–
313.3 K	–	31.9 mN/m and 30.4 mN/m
323.15 K	1414.1	–
332.6 K	–	30.8 mN/m
333.1 K	–	31.2 mN/m
333.15 K	1404.8	–
333.5 K	–	29.7 mN/m
343.15 K	1395.6	–
352.6 K	–	30.2 mN/m
353.15 K	1386.3	–
353.6 K	–	28.8 mN/m
353.7 K	–	30.1 mN/m
363.15 K	1377.1	–
372.7 K	–	27.9 mN/m
373.15 K	1367.9	–
373.6 K	–	28.1 mN/m
374.1 K	–	29.2 mN/m
383.15 K	1358.7	–
392.7 K	–	26.2 mN/m
393.15 K	1349.4	–
393.6 K	–	25.9 mN/m
394.2 K	–	28.1 mN/m
403.15 K	1340.1	–
412.5 K	–	26 mN/m
413.15 K	1330.7	–
413.6 K	–	25.6 mN/m
414.4 K	–	27.2 mN/m
423.15 K	1321.2	–
432.5 K	–	25.6 mN/m
432.6 K	–	24.9 mN/m
433.15 K	1311.6	–
434.5 K	–	26.6 mN/m
443.15 K	1301.9	–
452.2 K	–	24.4 mN/m and 24.2 mN/m
453.15 K	1292.1	–
455 K	–	25.8 mN/m
463.15 K	1282.2	–
472 K	–	23.3 mN/m
473 K	–	23.7 mN/m
473.15 K	1272	–
475.2 K	–	24.6 mN/m

CCCCCCCCCCCCn1cc[n+](C)c1.O=S(=O)([N-]S(=O)(=O)C(F)(F)F)C(F)(F)F
Conditions	mass density [kg/m3]	surface tension liquid-gas [mN/m]
293.15 K	1249.6	–
303.15 K	1240.9	–
313.15 K	1232.4	–
323.15 K	1224	–
333.15 K	1215.6	–
333.3 K	–	26.4
343.15 K	1207.4	–
353.15 K	1199.2	–
353.6 K	–	25.4
363.15 K	1190.9	–
373.15 K	1182.8	–
373.7 K	–	24.5
383.15 K	1174.7	–
393.15 K	1166.2	–
393.6 K	–	23.6
403.15 K	1158.4	–
413.15 K	1150.2	–
413.7 K	–	22.5
423.15 K	1142	–
433.15 K	1133.7	–
433.6 K	–	21.4
453.8 K	–	20.4
473.7 K	–	19.5
493.3 K	–	18.8
512.9 K	–	17.8
532.6 K	–	16.9

CCCCCCCCCCCCCCn1cc[n+](C)c1.O=S(=O)([N-]S(=O)(=O)C(F)(F)F)C(F)(F)F
Conditions	mass density [kg/m3]	surface tension liquid-gas [mN/m]
312.8 K	–	26.3
323.15 K	1193.1	–
323.3 K	–	24.9
333.15 K	1184.8	–
333.2 K	–	23.5
333.9 K	–	24.1
343.15 K	1176.6	–
353.15 K	1168.5	–
353.3 K	–	23.5
354 K	–	23.7
363.15 K	1160.5	–
373.15 K	1152.4	–
373.5 K	–	22.1
374 K	–	22.6
383.15 K	1144.4	–
393.15 K	1136.4	–
393.6 K	–	21.5
394.7 K	–	21.3
403.15 K	1128.4	–
413.15 K	1120.4	–
413.5 K	–	20.9
414.9 K	–	19.7
423.15 K	1112.4	–
433.15 K	1104.3	–
433.6 K	–	18.7
434.8 K	–	19.6
443.15 K	1096.2	–
453.15 K	1088	–
453.6 K	–	17.5
454.5 K	–	17.9
463.15 K	1079.7	–
473.15 K	1071.4	–
473.5 K	–	16.6
474.5 K	–	17
493.4 K	–	15.9
512.9 K	–	15.5

CCCCCCCCn1cc[n+](C)c1.O=S(=O)([N-]S(=O)(=O)C(F)(F)F)C(F)(F)F
Conditions	mass density [kg/m3]	surface tension liquid-gas [mN/m]
293.15 K	1326.5	–
303.15 K	1317.5	–
313 K	–	29.2
313.15 K	1308.6	–
313.2 K	–	28.5
323.15 K	1299.8	–
332.6 K	–	27.4
333.15 K	1291.2	–
333.3 K	–	28.2
343.15 K	1282.5	–
352.8 K	–	26.1
353.15 K	1273.9	–
353.8 K	–	27.3
363.15 K	1265.3	–
372.8 K	–	25.2
373.15 K	1256.7	–
373.6 K	–	26.3
383.15 K	1248.1	–
392.9 K	–	24
393.15 K	1239.5	–
393.6 K	–	25.3
403.15 K	1230.9	–
412.9 K	–	23.1
413.15 K	1222.2	–
413.4 K	–	24.3
423.15 K	1213.5	–
432.8 K	–	22.1
433.15 K	1204.8	–
433.3 K	–	23.2
443.15 K	1195.9	–
452.5 K	–	21.5
453.15 K	1187	–
453.4 K	–	22.1
463.15 K	1178	–
472.4 K	–	19.7
473.15 K	1168.8	–
473.6 K	–	20.7
493 K	–	20.1
512.6 K	–	19.2

CCCCCCCn1cc[n+](C)c1.O=S(=O)([N-]S(=O)(=O)C(F)(F)F)C(F)(F)F
Conditions	mass density [kg/m3]
293.15 K	1349.5
303.15 K	1340.4
313.15 K	1331.5
323.15 K	1322.6
333.15 K	1313.8
343.15 K	1305
353.15 K	1296.3
363.15 K	1287.6
373.15 K	1278.9
383.15 K	1270.1
393.15 K	1261.4
403.15 K	1252.6
413.15 K	1243.8
423.15 K	1235
433.15 K	1226.1
443.15 K	1217
453.15 K	1208
463.15 K	1198.7
473.15 K	1189.4

CCCCCC[n+]1ccn(C)c1.O=S(=O)([N-]S(=O)(=O)C(F)(F)F)C(F)(F)F
Conditions	mass density [kg/m3]	surface tension liquid-gas [mN/m]
293.15 K	1378.1	–
303.15 K	1368.9	–
313 K	–	29.4
313.15 K	1359.8	–
323.15 K	1350.8	–
333.15 K	1341.8	–
333.2 K	–	28.1
343.15 K	1332.9	–
353.15 K	1324	–
353.4 K	–	27.2
363.15 K	1315.2	–
373.15 K	1306.3	–
373.4 K	–	26.5
383.15 K	1297.4	–
393.15 K	1288.5	–
393.5 K	–	25.6
403.15 K	1279.6	–
413.15 K	1270.6	–
413.3 K	–	24.8
423.15 K	1261.6	–
433.15 K	1252.4	–
433.6 K	–	24.2
443.15 K	1243.2	–
453.15 K	1233.9	–
453.4 K	–	23.6
463.15 K	1224.5	–
473.15 K	1214.9	–
473.4 K	–	21.8
493.2 K	–	20.7
512.7 K	–	19.3
532.4 K	–	18.5

CCCCCCCCCCn1cc[n+](C)c1.O=S(=O)([N-]S(=O)(=O)C(F)(F)F)C(F)(F)F
Conditions	mass density [kg/m3]	surface tension liquid-gas
293.15 K	1284.9	–
303.15 K	1276	–
313.15 K	1267.4	–
313.2 K	–	28.7 mN/m
313.3 K	–	29.1 mN/m
314.1 K	–	27.7 mN/m
323.15 K	1258.8	–
333 K	–	26.7 mN/m
333.15 K	1250.3	–
333.3 K	–	27 mN/m
333.6 K	–	28.1 mN/m
343.15 K	1241.8	–
352.7 K	–	27 mN/m
353.15 K	1233.5	–
353.2 K	–	25.4 mN/m
353.3 K	–	25.3 mN/m
363.15 K	1225.1	–
372.6 K	–	26.3 mN/m
373.15 K	1216.7	–
373.3 K	–	24.3 mN/m
373.4 K	–	24.5 mN/m
383.15 K	1208.4	–
392.4 K	–	24.9 mN/m and 24.6 mN/m
393.15 K	1200	–
393.3 K	–	23.5 mN/m
403.15 K	1191.7	–
412.3 K	–	23.5 mN/m
412.5 K	–	23.6 mN/m
413.15 K	1183.3	–
413.5 K	–	22.4 mN/m
423.15 K	1174.8	–
432.2 K	–	22.9 mN/m
433 K	–	22.2 mN/m
433.15 K	1166.4	–
433.3 K	–	21.5 mN/m
443.15 K	1157.8	–
452.8 K	–	22.2 mN/m
452.9 K	–	21.2 mN/m
453.15 K	1148.9	–
453.2 K	–	20.4 mN/m
463.15 K	1140.2	–
472.7 K	–	21.1 mN/m
472.8 K	–	19.1 mN/m
473.15 K	1131.4	–
473.3 K	–	19.3 mN/m
492.5 K	–	20.1 mN/m
493.1 K	–	18.5 mN/m
513.8 K	–	17.5 mN/m
533.2 K	–	16.9 mN/m

CCn1cc[n+](C)c1.O=S(=O)([N-]S(=O)(=O)C(F)(F)F)C(F)(F)F
Conditions	mass density [kg/m3]	surface tension liquid-gas
293.15 K	1525	–
303.15 K	1515.1	–
313 K	–	35.2 mN/m
313.15 K	1505.3	–
313.2 K	–	33.8 mN/m and 34.7 mN/m
323.15 K	1495.5	–
332.7 K	–	34.2 mN/m
333.15 K	1485.8	–
333.3 K	–	33.6 mN/m
343.15 K	1476.1	–
352.4 K	–	33.4 mN/m
353.15 K	1466.4	–
353.4 K	–	33.4 mN/m
363.15 K	1456.7	–
372.7 K	–	32.5 mN/m
373.15 K	1447	–
373.2 K	–	31.5 mN/m
383.15 K	1437.2	–
392.9 K	–	31.4 mN/m
393.15 K	1427.4	–
393.2 K	–	31.1 mN/m
403.15 K	1417.5	–
412.8 K	–	30.5 mN/m
413.1 K	–	30.1 mN/m
413.15 K	1407.5	–
423.15 K	1397.5	–
432.5 K	–	29.6 mN/m
433.15 K	1387.3	–
443.15 K	1377	–
452.7 K	–	27.3 mN/m
453 K	–	28.7 mN/m
453.15 K	1366.6	–
463.15 K	1356	–
472.5 K	–	25.7 mN/m
472.7 K	–	26.4 mN/m
473.15 K	1345.2	–
512.6 K	–	24.6 mN/m
532.2 K	–	23.7 mN/m

CCCCCCCCC[n+]1ccn(C)c1.O=S(=O)([N-]S(=O)(=O)C(F)(F)F)C(F)(F)F
Conditions	mass density [kg/m3]
293.15 K	1303.1
303.15 K	1294.2
313.15 K	1285.5
323.15 K	1276.8
333.15 K	1268.3
343.15 K	1259.7
353.15 K	1251.3
363.15 K	1242.8
373.15 K	1234.3
383.15 K	1225.8
393.15 K	1217.4
403.15 K	1208.8
413.15 K	1200.3
423.15 K	1191.8
433.15 K	1183.2
443.15 K	1174.5
453.15 K	1165.7
463.15 K	1156.8
473.15 K	1147.8
